Values joined by “and” are separate entries in the source; they are usually repeats but may differ in a detail not shown here. Identical values can stand only once.
Legend:
Male Swiss mice = test: Open field activity test (anxiolytic effect) and observation of animals; type: in vivo
Experimental: Drug administration: Route: intraperitoneal (IP), Method: by injection. The drug was administered under a volume calculated according to the individual body weight of each mouse (5 ml/kg), Frequency: once before the behavioral procedure, Treatment length: once, Timing: 30 minutes before behavioral procedure.
Health of animals was checked daily: general aspect of animals, activity, acute or delayed mortality. Weight was monitored the day of experiment.
The day of the test, animals were tested for general locomotor activity in the open field (OF) activity test for 10 min. The open field is made of opaque white plexiglass. The arena is composed of a large square box (50cm × 50cm × 50cm). Animal movements were followed by an overhead camera placed above the apparatus. Each mouse was placed in the center of the arena and allowed to move freely through the arena during its session. The locomotor activity was assessed by counting the total distance traveled measured in centimeters (cm) for the whole session time. The time spent in center area, and the number of defecations were also assessed.

[1] = tested on: Aβ25-35-induced learning impairments in mice; test: Spontaneous alternation in the Y-maze, Aβ25-35 model of Alzheimer's disease; type: in vivo; details: 0.3-3 mg/kg IP, all doses, single administration on day 1, test on day 8
Experimental: Amyloid-β[25-35] peptide (Aβ25-35) was from Eurogentec (Angers, France). It was solubilized in distilled water at 3 mg/ml and stored at -20°C until use. Before injection, the peptide was incubated at 37°C for 4 days, allowing oligomerization. Control injection was performed with vehicle solution (distilled water), and intracerebroventricularly (ICV) injections were done as described previously (Maurice et al., 1996, 2019).
The Y-maze is made of grey polyvinylchloride. Each arm is 40 cm long, 13 cm high, 3 cm wide at the bottom, 10 cm wide at the top, and converging at an equal angle. Each mouse was placed at the end of one arm and allowed to move freely through the maze during an 8 min session. The series of arm entries, including possible returns into the same arm, were checked visually. An alternation is defined as entries into all three arms on consecutive occasions. The number of maximum alternations is therefore the total number of arm entries minus two and the percentage of alternation was calculated as (actual alternations / maximum alternations) × 100 (Maurice et al., 1996; Meunier et al., 2006, 2013). Exclusion criteria are locomotion < 10 or percentage of alternation < 25% or > 90%. Animals showing these readouts are excluded from the calculations. Attrition is routinely < 5% in this test. […]

[2] = tested on: Dizocilpine-induced learning impairments in mice; test: Step-through passive avoidance, Dizocilpine-induced learning impairments; type: in vivo
Excerpt: The apparatus is a two-compartments (15 × 20 × 15 cm high) box with one illuminated with white polyvinylchloride walls and the other darkened with black polyvinylchloride walls and a grid floor. A guillotine door separates each compartment. A 60 W lamp positioned 40 cm above the apparatus lights up the white compartment during the experiment. Scrambled foot shocks (0.3 mA for 3 s) could be delivered to the grid floor using a shock generator scrambler (Lafayette Instruments, Lafayette, USA). The guillotine door was initially closed during the training session. Each mouse was placed into the white compartment. After 5 s, the door was raised. When the mouse entered the darkened compartment and placed all its paws on the grid floor, the door is closed and the foot shocks delivered for 3 s. The step-through latency (STL-Tg), that is, the latency spent to enter the darkened compartment, and the number of vocalizations were recorded. The retention test was carried out 24 h after training. Each mouse was placed again into the white compartment. After 5 s, the door was raised. The step-through latency (STL-R) was recorded up to 300 s (Meunier et al., 2006, 2013; Villard et al., 2009, 2011). An exclusion criteria was STL-Tg and STL-R < 10 s. Animals showing these readouts are excluded from the calculations. Attrition is routinely < 5% in this test.

SIG-1R/BiP = molecular target: T1, SIG-1R/BiP (Homo sapiens, UniProt Q99720); test: SIG-1R/BiP dissociation assay in GFP-SIG-1R-overexpressing CHO cells; type: cell-based; details: for dissociation of SIG-1R from BiP (in words) / dissociation of the SIG-1R/BiP complex (in words): compound alone; for dissociation of the SIG-1R/BiP complex (in words): no concentration stated
T1 construct: host or cells: CHO cells overexpressing GFP-SIG-1R
T1 sequence (Q99720 whole entry): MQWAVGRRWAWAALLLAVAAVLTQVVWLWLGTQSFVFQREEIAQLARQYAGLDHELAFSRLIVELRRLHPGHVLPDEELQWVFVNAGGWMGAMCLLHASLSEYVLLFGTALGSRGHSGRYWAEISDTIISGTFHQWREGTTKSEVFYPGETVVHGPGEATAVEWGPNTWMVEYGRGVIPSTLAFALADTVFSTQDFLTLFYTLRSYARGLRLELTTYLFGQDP
Experimental: CHO cells which overexpress GFP tagged-SIG-1R (gift from Tsung-Ping Su, NIDA/NIH, Baltimore, MD, USA) were maintained in DMEM/Glutamax culture medium supplemented with 10% heat inactivated FBS. GFP-SIG-1Roe CHO cells were plated in 6-well plates and treated with test compounds dissolved in culture medium for 30 min at 37°C. The reaction was terminated by removing the culture medium containing the test drug and replacing it with 1 ml of PBS. GFP-SIG-1R-oe CHO cells were harvested and suspended in PBS (pH 7.4) followed by cross-linking with 50 µg/ml of dithiobis succinimidyl propionate (ThermoFisher, France). The reaction was stopped by adding Tris/HCl 50 mM (pH 8.8). After a 15 min incubation on ice, cells were lysed with 50 mM Tris (pH 7.4), 150 mM NaCl, 1% Triton X/100, 0.3% sodium deoxycholate, 0.1% SDS buffer containing a protease inhibitor cocktail (Sigma-Aldrich, France). After centrifugation at 16,000 g for 1 min, the supernatant was incubated with Chromotek GFP-trap agarose (Proteintech, United Kingdom) overnight at 4°C.

## COc1ccc(C(=O)OC2CC3CCC(C2)N3C)cc1OC (stereo not drawn) [Convolamine, (8-methyl-8-azabicyclo[3.2.1]octan-3-yl) 3,4-dimethoxybenzoate]
Male Swiss mice; IP 30 minutes before the test
  percentage of locomotion in center of the arena (in words): increase
Male Swiss mice; IP 30 minutes before the test, compared to the vehicle-treated group
  time spent in the center of the arena (in words): significant and bell-shaped increase
Male Swiss mice; single IP injection, daily health check
  mortality and adverse effect (in words): No mortality nor adverse effect
[1]
  Aβ25-35-induced deficit in spontaneous alternation (in words): significantly attenuated
[2]; Convolamine 1 mg/Kg IP with NE-100 1 mg/Kg
  convolamine effect on step-through latency under NE-100 co-treatment (in words): blocked
[2]; at 1 mg/kg IP
  Dizocilpine-induced decrease of step-through latency (in words): attenuated significantly
[2]; at 0.3-3 mg/kg IP
  Dizocilpine-induced increase of escape latency (in words): attenuated significantly
SIG-1R/BiP; IC50 of SIG-1R positive modulatory action (displacement of PRE-084 efficacy to dissociate SIG-1R from BiP), convolamine 0.1-10 µM with PRE-084
  IC50: 290 nM and 289 nM
SIG-1R/BiP; at concentrations < 10 µM
  dissociation of SIG-1R from BiP (in words): failed to dissociate SIG-1R from BiP
SIG-1R/BiP; at concentrations up to 30 µM
  dissociation of SIG-1R from BiP (in words): failed to dissociate SIG-1R from BiP
SIG-1R/BiP
  dissociation of the SIG-1R/BiP complex (in words): did not induce the dissociation
SIG-1R/BiP; listed as convolamine
  dissociation of the SIG-1R/BiP complex (in words): does not allow the dissociation

Reference: patent EP4523686A1, “A SIGMA-1 RECEPTOR POSITIVE MODULATOR FOR ITS USE IN THE PREVENTION AND THE TREATMENT OF A PATHOLOGY” (priority 2023, dated 2025)
